# Results taken from patent publication US8822530B2, “Sulfur derivatives as chemokine receptor modulators” (Allergan, Inc., priority 2010, dated 2014).
# Molecular target: T1, CCR2 receptor (Homo sapiens, UniProt P41597)
# T1 construct: expressed in transfected cells
# Test: Calcium activity assay on FLIPR Tetra in HEK-Gqi5 cells stably expressing CCR2
# Type: cell-based
# Protocol: HEK-Gqi5 cells stably expressing CCR2 were cultured in DMEM high glucose, 10% FBS, 1% PSA, 400 μg/ml geneticin and 50 μg/ml hygromycin. Appropriate positive control chemokines (MCP-1, MIP1A or RANTES) was used as the positive control agonist for screening compound-induced calcium activity assayed on the FLIPR^Tetra. The drug plates were prepared in 384-well microplates using the EP3 and the MultiPROBE robotic liquid handling systems. Compounds were synthesized and tested for CCR2 activity.
# T1 sequence (P41597 whole entry): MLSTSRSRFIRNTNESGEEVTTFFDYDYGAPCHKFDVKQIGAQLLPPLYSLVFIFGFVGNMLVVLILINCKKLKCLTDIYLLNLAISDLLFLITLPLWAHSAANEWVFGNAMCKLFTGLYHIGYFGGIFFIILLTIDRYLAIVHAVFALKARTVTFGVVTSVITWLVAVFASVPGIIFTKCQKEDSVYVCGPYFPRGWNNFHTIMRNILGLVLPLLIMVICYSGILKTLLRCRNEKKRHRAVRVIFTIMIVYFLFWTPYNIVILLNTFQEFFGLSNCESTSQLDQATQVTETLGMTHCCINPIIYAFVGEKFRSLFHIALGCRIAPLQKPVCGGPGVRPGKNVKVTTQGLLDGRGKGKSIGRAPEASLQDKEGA
Compound,CCR2 % ANTAGONISM,IC50
O=C(NCCN1CCCC1)c1cccc(CS(=O)(=O)c2ccc(Cl)cc2NS(=O)(=O)c2ccc(Cl)c(C(F)(F)F)c2)c1,110%,817 nM
"CN(C)C(=O)c1ccccc1CSc1ccc(Cl)cc1NS(=O)(=O)c1ccc(Cl)c(C(F)(F)F)c1 [2-({[4-chloro-2-({[4-chloro-3-(trifluoromethyl)phenyl]sulfonyl}amino)phenyl]sulfanyl}methyl)-N,N-dimethylbenzamide]",71%,171 nM
CCNC(=O)c1ccccc1CSc1ccc(Cl)cc1NS(=O)(=O)c1ccc(Cl)c(C(F)(F)F)c1 [2-({[4-chloro-2-({[4-chloro-3-(trifluoromethyl)phenyl]sulfonyl}amino)phenyl]sulfanyl}methyl)-N-ethylbenzamide],92%,149 nM
NC(=O)c1ccccc1CSc1ccc(Cl)cc1NS(=O)(=O)c1ccc(Cl)c(C(F)(F)F)c1 [2-({[4-chloro-2-({[4-chloro-3-(trifluoromethyl)phenyl]sulfonyl}amino)phenyl]sulfanyl}methyl)benzamide],88%,167 nM
O=C(O)c1ccccc1CSc1ccc(Cl)cc1NS(=O)(=O)c1ccc(Cl)c(C(F)(F)F)c1 [2-({[4-chloro-2-({[4-chloro-3-(trifluoromethyl)phenyl]sulfonyl}amino)phenyl]sulfanyl}methyl)benzoic acid],99%,79 nM
O=C(O)c1ccccc1C[S+]([O-])c1ccc(Cl)cc1NS(=O)(=O)c1ccc(Cl)c(C(F)(F)F)c1 (stereo not shown) [2-({[4-chloro-2-({[4-chloro-3-(trifluoromethyl)phenyl]sulfonyl}amino)phenyl]sulfinyl}methyl)benzoic acid],99%,853 nM
O=C(O)c1ccccc1CS(=O)(=O)c1ccc(Cl)cc1NS(=O)(=O)c1ccc(Cl)c(C(F)(F)F)c1 [2-({[4-chloro-2-({[4-chloro-3-(trifluoromethyl)phenyl]sulfonyl}amino)phenyl]sulfonyl}methyl)benzoic acid],105%,–
O=C(O)c1ccccc1CSc1ccc(Cl)cc1NS(=O)(=O)c1cc2ccccc2o1 [2-[({2-[(1-benzofuran-2-ylsulfonyl)amino]-4-chlorophenyl}sulfanyl)methyl]benzoic acid],101%,7 nM
O=C(O)c1ccccc1C[S+]([O-])c1ccc(Cl)cc1NS(=O)(=O)c1cc2ccccc2o1 (stereo not shown) [2-[({2-[(1-benzofuran-2-ylsulfonyl)amino]-4-chlorophenyl}sulfinyl)methyl]benzoic acid],98%,806 nM
O=C(O)c1ccccc1CS(=O)(=O)c1ccc(Cl)cc1NS(=O)(=O)c1cc2ccccc2o1 [2-[({2-[(1-benzofuran-2-ylsulfonyl)amino]-4-chlorophenyl}sulfonyl)methyl]benzoic acid],96%,–
O=C(O)c1ccccc1CSc1ccc(F)cc1NS(=O)(=O)c1cc2ccccc2o1 [2-[({2-[(1-benzofuran-2-ylsulfonyl)amino]-4-fluorophenyl}sulfanyl)methyl]benzoic acid],99%,11 nM
O=C(O)c1ccccc1C[S+]([O-])c1ccc(F)cc1NS(=O)(=O)c1cc2ccccc2o1 (stereo not shown) [2-[({2-[(1-benzofuran-2-ylsulfonyl)amino]-4-fluorophenyl}sulfinyl)methyl]benzoic acid],92%,1850 nM
O=C(O)c1ccccc1CS(=O)(=O)c1ccc(F)cc1NS(=O)(=O)c1cc2ccccc2o1 [2-[({2-[(1-benzofuran-2-ylsulfonyl)amino]-4-fluorophenyl}sulfonyl)methyl]benzoic acid],89%,2470 nM
O=C(O)CCSc1ccc(Cl)cc1NS(=O)(=O)c1cc2ccccc2o1 [3-({2-[(1-benzofuran-2-ylsulfonyl)amino]-4-chlorophenyl}sulfanyl)propanoic acid],99%,46 nM
O=C(NCCN1CCCC1)c1cccc(CSc2ccc(Cl)cc2NS(=O)(=O)c2ccc(Cl)c(C(F)(F)F)c2)c1 [3-({[4-chloro-2-({[4-chloro-3-(trifluoromethyl)phenyl]sulfonyl}amino)phenyl]sulfanyl}methyl)-N-[2-(pyrrolidin-1-yl)ethyl]benzamide],97%,2170 nM
O=C(O)c1cccc(CSc2ccc(Cl)cc2NS(=O)(=O)c2ccc(Cl)c(C(F)(F)F)c2)c1 [3-({[4-chloro-2-({[4-chloro-3-(trifluoromethyl)phenyl]sulfonyl}amino)phenyl]sulfanyl}methyl)benzoic acid],102%,56 nM
O=C(NCCN1CCCC1)c1cccc(C[S+]([O-])c2ccc(Cl)cc2NS(=O)(=O)c2ccc(Cl)c(C(F)(F)F)c2)c1 (stereo not shown) [3-({[4-chloro-2-({[4-chloro-3-(trifluoromethyl)phenyl]sulfonyl}amino)phenyl]sulfinyl}methyl)-N-[2-(pyrrolidin-1-yl)ethyl]benzamide],105%,910 nM
O=C(O)c1cccc(C[S+]([O-])c2ccc(Cl)cc2NS(=O)(=O)c2ccc(Cl)c(C(F)(F)F)c2)c1 (stereo not shown) [3-({[4-chloro-2-({[4-chloro-3-(trifluoromethyl)phenyl]sulfonyl}amino)phenyl]sulfinyl}methyl)benzoic acid],89%,–
O=C(NCC[N+]1([O-])CCCC1)c1cccc(CS(=O)(=O)c2ccc(Cl)cc2NS(=O)(=O)c2ccc(Cl)c(C(F)(F)F)c2)c1 [3-({[4-chloro-2-({[4-chloro-3-(trifluoromethyl)phenyl]sulfonyl}amino)phenyl]sulfonyl}methyl)-N-[2-(1-oxidopyrrolidin-1-yl)ethyl]benzamide],51%,–
O=C(O)c1cccc(CS(=O)(=O)c2ccc(Cl)cc2NS(=O)(=O)c2ccc(Cl)c(C(F)(F)F)c2)c1 [3-({[4-chloro-2-({[4-chloro-3-(trifluoromethyl)phenyl]sulfonyl}amino)phenyl]sulfonyl}methyl)benzoic acid],101%,1580 nM
CCN(C)C(=O)CCSc1ccc(Cl)cc1NS(=O)(=O)c1ccc(Cl)cc1F [3-[(4-chloro-2-{[(4-chloro-2-fluorophenyl)sulfonyl]amino}phenyl)sulfanyl]-N-ethyl-N-methylpropanamide],49%,–
O=C(O)CCSc1ccc(Cl)cc1NS(=O)(=O)c1ccc(Cl)cc1F [3-[(4-chloro-2-{[(4-chloro-2-fluorophenyl)sulfonyl]amino}phenyl)sulfanyl]propanoic acid],102%,129 nM
CCN(C)C(=O)CC[S+]([O-])c1ccc(Cl)cc1NS(=O)(=O)c1ccc(Cl)cc1F (stereo not shown) [3-[(4-chloro-2-{[(4-chloro-2-fluorophenyl)sulfonyl]amino}phenyl)sulfinyl]-N-ethyl-N-methylpropanamide],89%,7520 nM
O=C(O)CC[S+]([O-])c1ccc(Cl)cc1NS(=O)(=O)c1ccc(Cl)cc1F (stereo not shown) [3-[(4-chloro-2-{[(4-chloro-2-fluorophenyl)sulfonyl]amino}phenyl)sulfinyl]propanoic acid],83%,–
CCN(C)C(=O)CCS(=O)(=O)c1ccc(Cl)cc1NS(=O)(=O)c1ccc(Cl)cc1F [3-[(4-chloro-2-{[(4-chloro-2-fluorophenyl)sulfonyl]amino}phenyl)sulfonyl]-N-ethyl-N-methylpropanamide],87%,2260 nM
O=C(O)CCS(=O)(=O)c1ccc(Cl)cc1NS(=O)(=O)c1ccc(Cl)cc1F [3-[(4-chloro-2-{[(4-chloro-2-fluorophenyl)sulfonyl]amino}phenyl)sulfonyl]propanoic acid],90%,–
"CCN(CC)C(=O)CC[S+]([O-])c1ccc(Cl)cc1NS(=O)(=O)c1ccc(Cl)c(C(F)(F)F)c1 (stereo not shown) [3-{[4-chloro-2-({[4-chloro-3-(trifluoromethyl)phenyl]sulfonyl}amino)phenyl]sulfinyl}-N,N-diethylpropanamide]",56%,1690 nM
"CCN(CC)C(=O)CCS(=O)(=O)c1ccc(Cl)cc1NS(=O)(=O)c1ccc(Cl)c(C(F)(F)F)c1 [3-{[4-chloro-2-({[4-chloro-3-(trifluoromethyl)phenyl]sulfonyl}amino)phenyl]sulfonyl}-N,N-diethylpropanamide]",61%,1860 nM
O=C(NCC[N+]1([O-])CCCC1)c1ccc(CSc2ccc(Cl)cc2NS(=O)(=O)c2ccc(Cl)c(C(F)(F)F)c2)cc1 [4-({[4-chloro-2-({[4-chloro-3-(trifluoromethyl)phenyl]sulfonyl}amino)phenyl]sulfanyl}methyl)-N-[2-(1-oxidopyrrolidin-1-yl)ethyl]benzamide],31%,–
O=C(NCCN1CCCC1)c1ccc(CSc2ccc(Cl)cc2NS(=O)(=O)c2ccc(Cl)c(C(F)(F)F)c2)cc1 [4-({[4-chloro-2-({[4-chloro-3-(trifluoromethyl)phenyl]sulfonyl}amino)phenyl]sulfanyl}methyl)-N-[2-(pyrrolidin-1-yl)ethyl]benzamide],75%,2320 nM
